Test: RP, Thermo Scientific Acclaim RSLC 120 C18, 100 × 2.1 mm, 2.2 µm, 30 °C, 0.2 mL/min, estimated dead time 1.1 min; A: 90% water + 10% methanol + 0.01% formic acid + 5 mM ammonium formate, pH 3.61; B: methanol + 0.01% formic acid + 5 mM ammonium formate, pH 3.61; gradient (min/%B) 0/1 1/1 2/39 13/99.9 15/99.9 15.1/1 20.1/1
Conditions: stereoisomer not certain

LC retention time [min]	SMILES
6.01	CC#CCn1c(N2CCCC(N)C2)nc2c1c(=O)n(Cc1nc(C)c3ccccc3n1)c(=O)n2C (stereo not drawn) [Linagliptin]
7.76	CCN(CC)CCN1c2ccccc2Sc2ccccc21 [Diethazine]
7.19	CN1CCN(C2=Nc3cc(Cl)ccc3Nc3ccccc32)CC1 [Clozapine]
5.36	CCCCNC(=O)NS(=O)(=O)c1ccc(N)cc1 [Carbutamide]
10	CN(Cc1cc(Br)cc(Br)c1N)C1CCCCC1 [Bromhexine]
5.49	COc1cc(C(=O)c2cnc(N)nc2N)cc(OC)c1OC [Trimethoprim (Impurity B)]
9.9	CC(C)(C)NC(=O)C1CCC2C3CCC4NC(=O)C=CC4(C)C3CCC12C (stereo not drawn) [Finasteride]
7.57	OCCN1CCN(CCCN2c3ccccc3Sc3cccnc32)CC1 [Oxypendyl]
10.9	c1ccc2sc(NC3CCCCC3)nc2c1 [N-Cyclohexyl-2-benzothiazol-amine]
5.72	Cc1c(NC(C)C)c(=O)n(-c2ccccc2)n1C [Ramifenazone]
5.44	CON=C(C(=O)NC1C(=O)N2C(C(=O)O)=C(CSC(=O)c3ccco3)CSC12)c1csc(N)n1 (stereo not drawn) [Ceftiofur]
8.08	CNCCCC12CCC(c3ccccc31)c1ccccc12 [Maprotiline]
13.1	CCCCCCCCCCCCCCCC[N+](C)(C)Cc1ccccc1 [Benzyldimethylhexadecylammonium]
7.76	O=C(O)Cc1cccc2ccccc12 [Naphthylacetic acid (1-)]
3.38	CC(C)(ON=C(C(=O)NC1C(=O)N2C(C(=O)[O-])=C(C[n+]3ccccc3)CSC12)c1csc(N)n1)C(=O)O (stereo not drawn) [Ceftazidime]
4.24	CC(=O)Nc1ccc(S(=O)(=O)Nc2nccs2)cc1 [Sulfathiazole-N4-Acetyl]
7.09	Cc1cnc(NC(=O)C2=C(O)c3ccccc3S(=O)(=O)N2C)s1 [Meloxicam]
12	CCOc1c(N)c2c(c(OCC)c1OCC)C(C1c3c(cc4c(c3OC)OCO4)CCN1C)OC2=O (stereo not drawn) [Tritoqualine]
2.94	CCN1CCCC1CNC(=O)c1cc(S(N)(=O)=O)ccc1OC (stereo not drawn) [Sulpiride]
9.98	COc1ccc(Cl)cc1C(=O)NCCc1ccc(S(=O)(=O)NC(=O)NC2CCCCC2)cc1 [Glibenclamide]
8.15	CN1CCN(CCCN2c3ccccc3Sc3ccc(S(=O)(=O)N(C)C)cc32)CC1 [Thioproperazine]
3.95	Cc1ccnc(NS(=O)(=O)c2ccc(N)cc2)n1 [Sulfamerazine]

LC retention time [min]	SMILES
6.6	Cc1ccc(NC(=O)c2ccc(CN3CCN(C)CC3)cc2)cc1Nc1nccc(-c2cccnc2)n1 [Imatinib]
7.26	CC(=O)c1ccc2c(c1)N(CC(C)N(C)C)c1ccccc1S2 (stereo not drawn) [Aceprometazine]
9.79	CSc1nc2ccccc2s1 [Benzothiazole- 2-Me-S]
4.69	CCCNC(C)C(=O)Nc1c(C)csc1C(=O)OC (stereo not drawn) [Carticaine (Articaine)]
11.9	CCCCOC(=O)COc1ccc(Cl)cc1Cl [2.4-D-butylester]
7.03	COc1ccc(CCN(C)CCCC(C#N)(c2ccc(OC)c(OC)c2)C(C)C)cc1OC (stereo not drawn) [Verapamil]
9.21	CN(C)CCCN1c2ccccc2CCc2ccc(Cl)cc21 [Clomipramine]
9.44	CC1CC2C3CCC4=CC(=O)C=CC4(C)C3(F)C(O)CC2(C)C1(O)C(=O)CCl (stereo not drawn) [Clobetasol]
5.28	CC(=O)Nc1ccc(S(=O)(=O)Nc2cc(C)on2)cc1 [Sulfamethoxazole-N4-Acetyl  (Impurity A)]
7.59	CN1CCCC(n2nc(Cc3ccc(Cl)cc3)c3ccccc3c2=O)CC1 (stereo not drawn) [Azelastine]
9.55	CCOC(=O)C(CCc1ccccc1)NC(C)C(=O)N1C(C(=O)O)CC2CCCCC21 (stereo not drawn) [Trandolapril]
13.8	CON=C1CC2(CC3CC(CC=C(C)CC(C)C=CC=C4COC5C(O)C(C)=CC(C(=O)O3)C45O)O2)OC(C(C)=CC(C)C)C1C (stereo not drawn) [Moxidectin]
4.76	CN(C)CC(c1ccc(O)cc1)C1(O)CCCCC1 (stereo not drawn) [Venlafaxine-O-Desmethyl (Desvenlafaxine)]
5.29	CN1CCN2c3ncccc3Cc3ccccc3C2C1 (stereo not drawn) [Mirtazapine]
4.68	Nc1nc(N)c2nc(-c3ccccc3)c(N)nc2n1 [Triamterene]
7.14	CC(C)NC(=O)c1ccccc1O [Salicylamide-N-Isopropyl]
9.24	CC(=O)SC1CC2=CC(=O)CCC2(C)C2CCC3(C)C(CCC34CCC(=O)O4)C12 (stereo not drawn) [Spironolactone]
6	COC(=O)c1ccc(O)cc1 [Methylparaben]
4.2	Cc1[nH]c(C)c(Cl)c(=O)c1Cl [Clopidol]
8.19	CCCCc1nc(Cl)c(CO)n1Cc1ccc(-c2ccccc2-c2nn[nH]n2)cc1 [Losartan]
2.09	CC(=O)Nc1c(I)c(C(=O)O)c(I)c(C(=O)NCCO)c1I [Ioxitalamin acid]
4.93	CC(=O)c1cc2cccc(OCC(O)CNC(C)C)c2o1 (stereo not drawn) [Befunolol]

SMILES	LC retention time [min]
COc1cc(CC(C)N)c(OC)cc1Br (stereo not drawn) [DOB]	5.93
CCOC(=O)C(Cl)Cc1cc(-n2nc(C)n(C(F)F)c2=O)c(F)cc1Cl (stereo not drawn) [Carfentrazone-ethyl]	10.7
CC(C)C1(NC(=O)C2CC3c4cccc5[nH]cc(c45)CC3N(C)C2)OC2(O)C3CCCN3C(=O)C(Cc3ccccc3)N2C1=O (stereo not drawn) [Ergocristine-Dihydro]	8.17
CN1CCC(N(Cc2ccccc2)c2ccccc2)CC1 [Bamipine]	7.77
O=C1CN=C(c2ccccc2F)c2cc(Cl)ccc2N1CCO [Flurazepam-2-OH-Ethyl]	8.19
CC(C)(N)Cc1ccccc1 [Phentermine]	4.64
CC=C1CC(C)C(O)(CO)C(=O)OCC2=CCN3CCC(OC1=O)C23 (stereo not drawn) [Retrorsine]	4.01
COC(=O)C(NC(=O)c1nn(CCCCCF)c2ccccc12)C(C)C (stereo not drawn) [AMB-5F]	10.5
CCN(C(C)=O)c1cccc(-c2ccnc3c(C#N)cnn23)c1 [Zaleplon]	6.61
CC(N)C(=O)c1ccccc1 (stereo not drawn) [Cathinone]	3.59
CC(=O)Oc1ccc2c3c1OC1C(OC(C)=O)C=CC4C(C2)N(C)CCC341 (stereo not drawn) [Heroin]	4.63
CN1C(=O)CN=C(c2ccccc2)c2cc(Cl)ccc21 [Diazepam]	9.53
CN1C2CCC1CC(OC(=O)C(CO)c1ccccc1)C2 (stereo not drawn) [Atropine]	4.36
CCNC(C)Cc1ccccc1 (stereo not drawn) [Amphetamine-N-Ethyl]	4.4
CC1C2Cc3ccc(O)cc3C1(C)CCN2CCc1ccccc1 (stereo not drawn) [Phenazocine]	6.08
CCC(=O)C1(c2cccc(O)c2)CCN(C)CC1 [Ketobemidone]	4.26
O=C(NC(=O)c1c(F)cccc1F)Nc1ccc(Cl)c(Oc2ncc(C(F)(F)F)cc2Cl)c1 [Fluazuron]	12.7
CC(N)Cc1c[nH]c2ccccc12 (stereo not drawn) [AMT (Alpha-Methyltryptamine)]	4.44
CCOP(=S)(Oc1ccc([N+](=O)[O-])cc1)c1ccccc1 (stereo not drawn) [EPN]	11.7
CNC(=O)Oc1cc(C)c(C)c(C)c1.CNC(=O)Oc1cc(C)cc(C)c1C [Trimethacarb (2.3.5-)]	8.4

SMILES	LC retention time [min]
COP(=S)(OC)Oc1ccc(S(=O)(=O)N(C)C)cc1 [Famphur]	7.99
O=C(Oc1cccc2ccccc12)c1cn(CCCCCF)c2ccccc12 [NM-2201]	12.4
Clc1cccc(N2CCNCC2)c1 [Chlorophenylpiperazine (meta-)<U+00A0>(mCPP)]	5.42
CC=C1N(C)C(C)CC1(c1ccccc1)c1ccccc1 (stereo not drawn) [EDDP]	6.38
CC(N)Cc1ccccc1F (stereo not drawn) [Amphetamine (2-F-)]	4.24
CC(COc1ccc(Oc2ccccc2)cc1)Oc1ccccn1 (stereo not drawn) [Pyriproxyfen]	12.6
COc1ccc2c3c1OC1C(=O)CCC4C(C2)N(C)CCC314 (stereo not drawn) [Hydrocodone]	3.69
O=C(c1cccc2ccccc12)c1cn(CC2CCCCC2)c2ccccc12 [NE-CHMIMO]	13
CCNC1(c2cccc(OC)c2)CCCCC1=O (stereo not drawn) [Methoxetamine]	4.93
CC1COC(Cn2cncn2)(c2ccc(Oc3ccc(Cl)cc3)cc2Cl)O1 (stereo not drawn) [Difenoconazole]	11.6
CC12CC(O)C3C(CCC4=CC(=O)CCC43C)C1CCC2=O (stereo not drawn) [4-Androsten-11beta-ol-3,17-dione]	8.23
Cc1nnc(-c2ccccc2)c(=O)n1N [Metamitron]	5.24
CCN1CC2(COC)C(O)CC(OC)C34C5CC6(O)C(OC)C(O)C(OC(C)=O)(C5C6OC(=O)c5ccccc5)C(C(OC)C23)C14 (stereo not drawn) [Aconitine]	7.09
CC(Cc1ccc(C(C)(C)C)cc1)CN1CC(C)OC(C)C1 (stereo not drawn) [Fenpropimorph]	10.7
CCCC(NC)C(=O)c1ccc2c(c1)OCO2 (stereo not drawn) [Pentylone]	4.99
CCOC(=O)C1(c2ccccc2)CCC=CC1NC (stereo not drawn) [Tilidine-Nor]	5.28
c1nc[nH]n1 [1,2,4-Triazole]	1.56
CCCCSP(=O)(SCCCC)SCCCC [Tribufos (Merphos oxide. DEF)]	13.4
CCOC(=O)Nc1cccc(OC(=O)Nc2ccccc2)c1 [Medipham-Desmethyl (desmedipham)]	8.57

From the RepoRT retention time repository (doi:10.1021/acs.analchem.2c02893)
